# Reference: PubChem BioAssay AID1259407 (Chemical Carcinogenesis Research Information System (CCRIS), 2018)
# Activity calls are given as the source filed them. No rule for the calls is given here.
# Tested on: CCRIS mutagenicity, Ames/micronucleus/aberration tests
# Assay: CCRIS mutagenicity studies
# [1] = Test System: AMES SALMONELLA TYPHIMURIUM, Strain/Indicator: TA98, Metabolic Activation: NONE, Method: PREINCUBATION
# [2] = Test System: AMES SALMONELLA TYPHIMURIUM, Strain/Indicator: TA100, Metabolic Activation: NONE, Method: PREINCUBATION
# [3] = Test System: AMES SALMONELLA TYPHIMURIUM, Strain/Indicator: TA1535, Metabolic Activation: NONE, Method: PREINCUBATION
# [4] = Test System: AMES SALMONELLA TYPHIMURIUM, Strain/Indicator: TA98, Metabolic Activation: RAT, LIVER, S-9, AROCLOR 1254, Method: STANDARD PLATE
# [5] = Test System: AMES SALMONELLA TYPHIMURIUM, Strain/Indicator: TA100, Metabolic Activation: NONE, Method: DESICCATOR
compound,measurement,setting,value
Clc1c(Cl)c(Cl)c2ccccc2c1Cl,mutagenic call,"Test System: AMES SALMONELLA TYPHIMURIUM, Strain/Indicator: TA98, Metabolic Activation: HAMSTER, LIVER, S-9, AROCLOR 1254, Method: PREINCUBATION",inactive; negative
same,mutagenic call,[1],inactive; negative
same,mutagenic call,"Test System: AMES SALMONELLA TYPHIMURIUM, Strain/Indicator: TA98, Metabolic Activation: RAT, LIVER, S-9, AROCLOR 1254, Method: PREINCUBATION",inactive; negative
same,mutagenic call,"Test System: AMES SALMONELLA TYPHIMURIUM, Strain/Indicator: TA100, Metabolic Activation: HAMSTER, LIVER, S-9, AROCLOR 1254, Method: PREINCUBATION",inactive; negative
same,mutagenic call,[2],inactive; negative
same,mutagenic call,"Test System: AMES SALMONELLA TYPHIMURIUM, Strain/Indicator: TA100, Metabolic Activation: RAT, LIVER, S-9, AROCLOR 1254, Method: PREINCUBATION",inactive; negative
same,mutagenic call,"Test System: AMES SALMONELLA TYPHIMURIUM, Strain/Indicator: TA1535, Metabolic Activation: HAMSTER, LIVER, S-9, AROCLOR 1254, Method: PREINCUBATION",inactive; negative
same,mutagenic call,[3],inactive; negative
same,mutagenic call,"Test System: AMES SALMONELLA TYPHIMURIUM, Strain/Indicator: TA1535, Metabolic Activation: RAT, LIVER, S-9, AROCLOR 1254, Method: PREINCUBATION",inactive; negative
same,mutagenic call,"Test System: AMES SALMONELLA TYPHIMURIUM, Strain/Indicator: TA1537, Metabolic Activation: HAMSTER, LIVER, S-9, AROCLOR 1254, Method: PREINCUBATION",inactive; negative
same,mutagenic call,"Test System: AMES SALMONELLA TYPHIMURIUM, Strain/Indicator: TA1537, Metabolic Activation: NONE, Method: PREINCUBATION",inactive; negative
same,mutagenic call,"Test System: AMES SALMONELLA TYPHIMURIUM, Strain/Indicator: TA1537, Metabolic Activation: RAT, LIVER, S-9, AROCLOR 1254, Method: PREINCUBATION",inactive; negative
CC(O)C(=O)NCCO (stereo unspecified),mutagenic call,[4],active; positive
same,mutagenic call,"Test System: AMES SALMONELLA TYPHIMURIUM, Strain/Indicator: TA1538, Metabolic Activation: RAT, LIVER, S-9, AROCLOR 1254, Method: STANDARD PLATE",active; positive
COC(F)(F)C(Cl)Cl,mutagenic call,"Test System: AMES SALMONELLA TYPHIMURIUM, Strain/Indicator: TA97, Metabolic Activation: HAMSTER, LIVER, S-9, AROCLOR 1254 (10 OR 30%), Method: PREINCUBATION",inactive; negative
same,mutagenic call,"Test System: AMES SALMONELLA TYPHIMURIUM, Strain/Indicator: TA97, Metabolic Activation: NONE, Method: PREINCUBATION",inactive; negative
same,mutagenic call,"Test System: AMES SALMONELLA TYPHIMURIUM, Strain/Indicator: TA97, Metabolic Activation: RAT, LIVER, S-9, AROCLOR 1254 (10 OR 30%), Method: PREINCUBATION",inactive; negative
same,mutagenic call,"Test System: AMES SALMONELLA TYPHIMURIUM, Strain/Indicator: TA98, Metabolic Activation: HAMSTER, LIVER, S-9, AROCLOR 1254 (10 OR 30%), Method: PREINCUBATION",inactive; negative
same,mutagenic call,"Test System: AMES SALMONELLA TYPHIMURIUM, Strain/Indicator: TA98, Metabolic Activation: HAMSTER, LIVER, S-9, AROCLOR 1254 (30%), Method: DESICCATOR",inactive; negative
same,mutagenic call,"Test System: AMES SALMONELLA TYPHIMURIUM, Strain/Indicator: TA98, Metabolic Activation: NONE, Method: DESICCATOR",inactive; negative
same,mutagenic call,[1],inactive; negative
same,mutagenic call,"Test System: AMES SALMONELLA TYPHIMURIUM, Strain/Indicator: TA98, Metabolic Activation: RAT, LIVER, S-9, AROCLOR 1254 (10 OR 30%), Method: PREINCUBATION",inactive; negative
same,mutagenic call,"Test System: AMES SALMONELLA TYPHIMURIUM, Strain/Indicator: TA98, Metabolic Activation: RAT, LIVER, S-9, AROCLOR 1254 (30%), Method: DESICCATOR",inactive; negative
same,mutagenic call,"Test System: AMES SALMONELLA TYPHIMURIUM, Strain/Indicator: TA100, Metabolic Activation: HAMSTER, LIVER, S-9, AROCLOR 1254 (10 OR 30%), Method: PREINCUBATION",inactive; negative
same,mutagenic call,"Test System: AMES SALMONELLA TYPHIMURIUM, Strain/Indicator: TA100, Metabolic Activation: HAMSTER, LIVER, S-9, AROCLOR 1254 (30%), Method: DESICCATOR",inactive; negative
same,mutagenic call,[5],inactive; negative
same,mutagenic call,[2],inactive; negative
same,mutagenic call,"Test System: AMES SALMONELLA TYPHIMURIUM, Strain/Indicator: TA100, Metabolic Activation: RAT, LIVER, S-9, AROCLOR 1254 (10 OR 30%), Method: PREINCUBATION",inactive; negative
same,mutagenic call,"Test System: AMES SALMONELLA TYPHIMURIUM, Strain/Indicator: TA100, Metabolic Activation: RAT, LIVER, S-9, AROCLOR 1254 (30%), Method: DESICCATOR",inactive; negative
same,mutagenic call,"Test System: AMES SALMONELLA TYPHIMURIUM, Strain/Indicator: TA1535, Metabolic Activation: HAMSTER, LIVER, S-9, AROCLOR 1254 (10 OR 30%), Method: PREINCUBATION",inactive; negative
same,mutagenic call,[3],inactive; negative
same,mutagenic call,"Test System: AMES SALMONELLA TYPHIMURIUM, Strain/Indicator: TA1535, Metabolic Activation: RAT, LIVER, S-9, AROCLOR 1254 (10 OR 30%), Method: PREINCUBATION",inactive; negative
CCN(CCC#N)c1ccc(N=Nc2c(Cl)cc([N+](=O)[O-])cc2Cl)cc1,mutagenic call,"Test System: AMES SALMONELLA TYPHIMURIUM, Strain/Indicator: TA98, Metabolic Activation: NONE, Method: STANDARD PLATE",active; positive
same,mutagenic call,[4],active; positive
same,mutagenic call,"Test System: AMES SALMONELLA TYPHIMURIUM, Strain/Indicator: YG1041, Metabolic Activation: NONE, Method: STANDARD PLATE",active; positive
same,mutagenic call,"Test System: AMES SALMONELLA TYPHIMURIUM, Strain/Indicator: YG1041, Metabolic Activation: RAT, LIVER, S-9, AROCLOR 1254, Method: STANDARD PLATE",active; positive
ClC(Cl)(Cl)C1CO1 (stereo unspecified),mutagenic call,"Test System: AMES SALMONELLA TYPHIMURIUM, Strain/Indicator: TA100, Metabolic Activation: HAMSTER, LIVER, S-9, AROCLOR 1254 (10%), Method: PREINCUBATION",active; positive
same,mutagenic call,[2],active; positive
same,mutagenic call,"Test System: AMES SALMONELLA TYPHIMURIUM, Strain/Indicator: TA100, Metabolic Activation: NONE, Method: STANDARD PLATE",active; positive
same,mutagenic call,"Test System: AMES SALMONELLA TYPHIMURIUM, Strain/Indicator: TA100, Metabolic Activation: RAT, LIVER, S-9, AROCLOR 1254 (10%), Method: PREINCUBATION",active; positive
same,mutagenic call,"Test System: AMES SALMONELLA TYPHIMURIUM, Strain/Indicator: TA104, Metabolic Activation: NONE, Method: STANDARD PLATE",active; positive
same,mutagenic call,"Test System: AMES SALMONELLA TYPHIMURIUM, Strain/Indicator: TA1535, Metabolic Activation: HAMSTER, LIVER, S-9, AROCLOR 1254 (10%), Method: PREINCUBATION",inactive; negative
same,mutagenic call,[3],active; positive
same,mutagenic call,"Test System: AMES SALMONELLA TYPHIMURIUM, Strain/Indicator: TA1535, Metabolic Activation: RAT, LIVER, S-9, AROCLOR 1254 (10%), Method: PREINCUBATION",inactive; negative
same,mutagenic call,"Test System: AMES SALMONELLA TYPHIMURIUM, Strain/Indicator: TA4001, Metabolic Activation: NONE, Method: STANDARD PLATE",active; positive
same,mutagenic call,"Test System: AMES SALMONELLA TYPHIMURIUM, Strain/Indicator: TA4006, Metabolic Activation: NONE, Method: STANDARD PLATE",active; positive
CCCCBr,mutagenic call,"End Point: In vitro micronucleus, Test System: Chinese Hamster Ovary (CHO-WBL) cells, Metabolic Activation: None",inactive; negative
same,mutagenic call,[5],active; positive
same,mutagenic call,"Test System: AMES SALMONELLA TYPHIMURIUM, Strain/Indicator: TA100, Metabolic Activation: RAT, LIVER, S-9, AROCLOR 1254, Method: DESICCATOR",active; positive
same,mutagenic call,"Test System: AMES SALMONELLA TYPHIMURIUM, Strain/Indicator: TA1535, Metabolic Activation: NONE, Method: DESICCATOR",active; positive
same,mutagenic call,"Test System: AMES SALMONELLA TYPHIMURIUM, Strain/Indicator: TA1535, Metabolic Activation: RAT, LIVER, S-9, AROCLOR 1254, Method: DESICCATOR",active; positive
